Reference: patent publication US8697081B2, “Method of modulating neovascularization” (The Regents of the University of Michigan, priority 2008, dated 2014)

Tests used:
human endothelial cells = assay: F-actin cytoskeletal organization, activated β1 integrin and vinculin distribution (phalloidin, confocal); assay type: cell-based; details: 3-D fibrin gel, 2 days, 50 μM blebbistatin
Protocol: To further study the effects of Fn matrix inhibition, additional cytological processes associated with angiogenesis were examined. Endothelial cells were cultured within 3-D or 2-D fibrin gels in the presence of the FUD or Del 29 peptides for 2 days. F-actin cytoskeletal organization was monitored following staining with Alexa 488-conjugated phalloidin. Cells also were stained with an antibody against activated β1 integrin or transfected with a GFP-tagged vinculin expression vector (pRK-vinculin-EGFP) to study distribution. Following counterstaining with Alexa 594-labeled phalloidin, fluorescence was monitored by confocal laser microscopy.
In the absence of Fn fibrillogenesis, an impaired ability of embedded endothelial cells to generate myosin-dependent forces and increase cytoplasmic stiffness was predicted to affect both Fn unfolding, as well as the ability of the cells to properly register the mechanical properties of the surrounding substratum (Wu et al. 1995. Cell, 83(5): 715-724; Zhong et al. 1998. J. Cell Biol., 141(2): 539-551; Baneyx et al. 2002. Proc. Natl. Acad. Sci. USA, 99(8): 5139-5143; Discher et al. 2005. Science, 310(5751): 1139-1143; Engler, supra; and Yoneda, supra). As such, the rheologic and functional characteristics of endothelial cells were assessed in the presence of the specific myosin ATPase inhibitor, blebbistatin. […]

[1] = test system: Human umbilical vein endothelial cells; assay: Cytoskeletal organization (F-actin, β-tubulin, vimentin) and isometric tension/contractile force; assay type: cell-based; details: 3-D culture, VEGF/HGF-stimulated, blebbistatin or nocodazole
Protocol: This process can be recapitulated in vitro by embedding serum-supplemented human endothelial cells within a 3-D fibrin gel in the presence of the pro-angiogenic factors, VEGF and HGF. Human umbilical vein endothelial cells were isolated from umbilical cords by perfusion of the umbilical vein with type 3 collagenase (Worthington, Lakewood, N.J.) and cultured in Medium-199 (Invitrogen, Carlsbad, Calif.) with 20% human serum and 50 μg/ml endothelial cell growth supplement (ECGS; BD Biosciences, Franklin Lakes, N.J.). For 3-D culture, endothelial cells were suspended in a solution of thrombin and aprotinin (Sigma, St. Louis, Mo.) and mixed 1:1 with a solution of 6 mg/ml fibrinogen (Calbiochem, Gibbstown, N.J.). Vasculogenesis was triggered by treatment with 100 ng/ml VEGF, 50 ng/ml HGF (Genentech, San Francisco, Calif.).
VEGF/HGF-stimulated endothelial cells were treated with either (a) blebbistatin to inhibit myosin ATPase function, or (b) nocodazole to prevent microtubule assembly under 3-D culture conditions (Salpingidou et al., 2007. J. Cell Biol., 178: 897-904; Zhou et al., supra).

[2] = test system: β-actin, α-actinin, and MLC2; assay: Western blot with semi-quantitative densitometry of cytoskeletal proteins; assay type: cell-based, human; details: 3-D fibrin gel
Source text: Tractional forces exerted at cell-matrix adhesion sites require the activation of an actinomyosin motor complex whose assembly is tightly linked to actin cytoskeleton organization, non-muscle myosin II isoform expression, and the rigidity of the surrounding substratum (Meshel et al. 2005. Nat. Cell Biol., 7(2): 157-164; Engler, supra; and Even-Ram, supra; Yoneda et al. 2007. Mol. Cell. Biol., 19(1): 66-75). β-actin, α-actinin, myosin light chain-2 (MLC2), and non-muscle myosin IIA and IIB isoform (NMMIIA and NMMIIB, respectively) protein levels were monitored in 3-D embedded endothelial cells to determine the effect of Fn matrix inhibition on the expression of gene products critical to the generation of tractional forces. Endothelial cells were cultured in 3-D fibrin gels for 2 days with either the FUD peptide or the control Del29 peptide. Levels of β-actin, α-actinin, NMMIIA, NMMIIB, and MLC2 were measured by Western blot, with ERK1/2 serving as the loading control. As assessed by semi-quantitative densitometry, the levels of β-actin, actinin and MLC2 were 58±7% (n=5; mean±1 SD), 62% (n=2), and 60±12% (n=3; mean±1 SD) of control, respectively.

Molecule	cytoskeletal architecture reorganization (human endothelial cells)	contractile force exerted on the 3-D ECM [1]	level of actinin ([2]; 2 days, control Del29 peptide, n=2)	level of MLC2 ([2]; 2 days, control Del29 peptide, n=3, mean±1 SD)	level of β-actin ([2]; 2 days, control Del29 peptide, n=5, mean±1 SD)	levels of β-actin, α-actinin, and MLC2 ([2]; growth factor-stimulated)
Cc1ccc2c(c1)C(=O)C1(O)CCN(c3ccccc3)C1=N2 (stereo not drawn) [blebbistatin]	did not reorganize	impairing	–	–	–	–
FUD: 49-residue functional upstream domain of Streptococcus pyogenes F1 adhesion protein, SEQ ID NO: 10; fibronectin fibril assembly inhibitor (KDQSPLAGESGETEYITEVYGNQQNPVDIDKKLPNETGFSGNMVETEDT; Streptococcus pyogenes; Functional Upstream Domain (FUD) of F1 adhesion protein)	–	–	62 % of control	60±12 % of control	58±7 % of control	markedly reduced
